Assay results: US20260317367A1, “SALTS INCLUDING CRYSTALLINE SALTS OF 25-HYDROXY-CHOLEST-5-EN-3-SULFATE AND METHODS FOR PREPARING SAME” (Durect Corporation, priority 2022, published 2026)
Entries after “also recorded” stand apart in the source; their conditions may differ. Where a name gives a salt, the structure may show the parent alone.

Tests used:
Type in all cases: physicochemical
[1] = Solubility of 25HC3S salts after one day at room temperature (HPLC, as free acid); details: one day
Description: These fluids were prepared per the instruction listed by Biorelevant (Biorelevant.com). Each buffer concentrate was diluted with water and mixed well. FaSSIF, FeSSIF, FaSSGF powder was added to each buffer and mixed to completely dissolve the powder. Buffers were stored at room temperature and used within 48 hours of preparation.
25HC3S salts were weighed in 8 mL or 4 mL glass vials with Teflon coated screw caps. Aliquots of each solvent were added to each sample and vortexed for about one minute until excess solid remained. Samples were placed on shaker at room temperature with 210 motion per minute shaking.
After one day, samples were pulled and checked if excess solid was present. About 1.5 mL aliquot of each sample was centrifuged at 12000 rpm for 12 to 15 minutes. […] Aliquots of the top clear solution of each centrifuged sample in MeOH, EtOH, IPA and ACN were diluted with diluent (water:MeOH 95:5) and assayed by HPLC. Samples of the salts in aqueous media were assayed by HPLC without dilution.
All solubility sample solutions of 25HC3S salts were determined using HPLC. A linear standard curve was constructed using standards with concentration between 11 μg/mL to 1.5 mg/mL as free acid forcing the curve to origin. Solubilities are reported as mg/mL free acid 25HC3S. Detection limit (LOD) of the HPLC method was calculated as 0.0007 mg/mL.

[2] = Solid-state chemical stability of 25HC3S salts at 2-8° C., 60° C. and 80° C. (HPLC assay and degradation products)
Description: (§1) Approximately 25 mg of each crystalline 25HC3S salt was added to 20 mL glass vials and each powder weight was recorded. Four vials were prepared for each salt and stored at 2-8° C. or 80° C. according to Table B2. The samples were scheduled initially to pull for testing at 3 weeks and 6 weeks' time points.
(§2) For those […] salts, the remaining vials stored at 2-8° C. for 3 weeks were allocated for storage at 60° C. for 1 week. Additional stability data was generated according to Table B3.
Based on the molecular weights, and expected UV response factors of each salt used in this study, the expected analytical sample concentrations were within the range of the 25HC3S sodium reference standards (0.75 mg/mL to 1.25 mg/mL as 25HC3S sodium salt). However, due to the lower-than-expected purity of the 25HC3S benzathine salt, an additional standard was prepared at 0.125 mg/mL as 25HC3S sodium salt.
Samples were prepared by pipetting 20 mL of 100% methanol into each vial and mixing well, with sonication and vortexing to fully dissolve the samples for HPLC analysis.
Samples were prepared by pipetting 20 mL of 100% methanol into each vial followed by two rounds of sonication for 30 minutes, with 30 seconds of vortexing before and after each round. Sample aliquots were then centrifuged at 10,000 RPM for 10 minutes and the supernatant collected for HPLC analysis.
Samples were prepared by pipetting 20 mL of 100% methanol into each vial, followed by 5 seconds of vortexing. The undissolved powder in methanol was quantitatively transferred into 200 mL volumetric flasks. The sample vials were rinsed 3 times with methanol, with each rinsate transferred to the 200 mL volumetric flasks. The volumetric flasks were filled to about 90% volume and sonicated for 10 minutes to fully dissolve the powder. The flasks were filled to volume with methanol, mixed well and aliquots collected for HPLC analysis.
HPLC analysis was performed.

[3] = Appearance (color, clumping, flowability) of stored 25HC3S salts; details: for Appearance: listed as 25HC3S zinc
Description: as §1, §2
For appearance, each unopened vial was visually examined for color, clumping, and flowability.

[4] = Angle of repose of 25HC3S salts; details: listed as 25HC3S zinc
Description: Angle of repose is measured as follows. Powder is poured from a funnel onto a flat surface until a cone of powder is created. The angle of repose is calculated according to the following equation: […]
Table C1, from USP<1174> Powder Flow, describes the powder flow properties correlating to the angles of repose.
The lower the angle of repose, the more flowable is a material. Powder with an angle of repose between 25° to 30° will show excellent flow through a hopper, feed frame, die table and die bore smoothly. From 41° to greater than 66°, you may experience powder flow difficulties like rat-holing or bridging within the hopper.
The angle of repose was determined by pouring approximately 2 grams of a 25HC3S salt through a 7 mm inner diameter plastic tube into the center of a 21.14 mm diameter rubber O-ring, resulting in the formation of a powder cone of fixed diameter. The height of the cone was estimated with calipers.

[5] = Hausner ratio and compressibility index of 25HC3S salts; details: listed as 25HC3S zinc
Description: Although there are some variations in the method of determining the compressibility index and Hausner ratio, the basic procedure is to measure the unsettled apparent volume, VO, and the final tapped volume, Vf, of the powder after tapping the material until no further volume changes occur. The compressibility index and the Hausner ratio are calculated as follows: […]
Both the Hausner ratio and the compressibility index are empirically established. The Hausner ratio and compressibility index are not absolute properties of a material; its value can vary depending on the methodology used to determine them. In this case, since the 14 salts of 25HC3S were measured the same way, the relative values should be accurate.
Table C3, from USP <1174> Powder Flow, describes the flow character of the powder based on the compressibility index and Hausner ratio values.
Powder was carefully poured into a 5 mL glass graduated cylinder (to contain) until it was close to or at 5.0 mL. This initial volume was recorded as Vo. The graduated cylinder was tapped on a hard surface for 200 times and the volume was recorded. The cylinder was tapped 100 times more, and the final volume Vf was recorded. Typically, the volume after 200 taps was identical to after 300 taps, or within 0.1 mL.

[6] = 80° C., 3 weeks, listed as 25HC3S Zinc

Compound: CC(CCCC(C)(C)O)C1CCC2C3CC=C4CC(OS(=O)(=O)O)CCC4(C)C3CCC12C (stereo not drawn) [Salt #3]
- Solubility in 5% Dextrose ([1]; 5% dextrose, room temperature, as free acid, ND = not detected, detection limit 0.7 μg/mL, 1440 min, listed as 25HC3S zinc): 13 µg/mL
- Solubility in ethanol (in words) ([1]; EtOH, room temperature, listed as crystalline 25HC3S zinc): relatively high solubility
- Solubility in FaSSGF (in words) ([1]; FaSSGF, room temperature, listed as crystalline 25HC3S zinc): low solubility
- Solubility in FaSSIF ([1]; FaSSIF, room temperature, as free acid, 1440 min, listed as 25HC3S zinc): 133 µg/mL
- Solubility in FaSSGF ([1]; Fasted State Simulated Gastric Fluid, pH 1.6, room temperature, as free acid, LOD 0.0007 mg/mL): no solubilized drug was detected
- Solubility in FeSSIF ([1]; FeSSIF, room temperature, as free acid, 1440 min, listed as 25HC3S zinc): 673 µg/mL
- Solubility in ACN ([1]; acetonitrile, room temperature, as free acid, 1440 min, listed as 25HC3S zinc): 100 µg/mL
- Solubility in EtOH ([1]; ethanol, room temperature, as free acid, ≥ = did not reach saturation, 1440 min, listed as 25HC3S zinc): 31200 µg/mL
- Solubility in IPA ([1]; isopropyl alcohol, room temperature, as free acid, 1440 min, listed as 25HC3S zinc): 3500 µg/mL
- Solubility in MeOH ([1]; methanol, room temperature, as free acid, ≥ = did not reach saturation, 1440 min, listed as 25HC3S zinc): 39500 µg/mL
- Solubility in saline / 0.9% sodium chloride (in words) ([1]; saline, room temperature, listed as crystalline 25HC3S zinc): low solubility
- Solubility in H2O ([1]; water, room temperature, as free acid, ND = not detected, detection limit 0.7 μg/mL, 1440 min, listed as 25HC3S zinc): 6 µg/mL
- Assay ([2]; 2-8° C., 3 wk, 30240 min, listed as 25HC3S zinc): 92.6 % w/w
- % Impurities, Total ([2]; 2-8° C., 3 wk, ND = Not Detected, listed as 25HC3S zinc): 0.6%
- Overall physical and chemical stability (in words) ([2]; 2-8° C., 60° C., 80° C.): least physically and chemically stable
- Overall physical and chemical stability (in words) ([2]; 2-8° C., 60° C., 80° C., listed as zinc): least stable
- % Impurities, 25-HC ([2]; 25-Hydroxy-Cholesterol, 2-8° C., 3 wk, ND = Not Detected, listed as 25HC3S zinc): 0.2%
- Physical and chemical solid-state stability (comments) ([2]; 60° C., 1 week, listed as 25HC3S Zinc): Totally decomposed after 1 weck at 60 °C
- Assay ([2]; 60° C., 1 wk (after 3 weeks at 2-8° C.), 10080 min, listed as 25HC3S zinc, 10080 min): 0.0 % w/w
- % Recovery of 2-8° C./3 wk vs 60° C./1 wk ([2]; 60° C., 1 wk, 10080 min, listed as 25HC3S zinc): 0.0%
- % Impurities, Total ([2]; 60° C., 1 wk, ND = Not Detected, listed as 25HC3S zinc): 100.0%
- Physical and chemical solid-state stability (comments) [2, 6]: Totally decomposed after 1 weck at 60 °C and after 3 weeks at 80 °C
- dissolution of decomposed samples in diluent / degradants observed (comments) [2, 6]: decomposed samples at 3-weeks at 80 °C did not dissolve in the diluent,; also recorded: therefore, no degradants were observed
- % Recovery ([2]; 80° C., 3 wk, vs 2-8° C., 30240 min, listed as 25HC3S zinc, 30240 min): 0.0%
- Assay ([2]; 80° C., 3 wk, 30240 min, listed as 25HC3S zinc): 0.0 % w/w
- Stability after 1 week at 60° C. (in words) ([2]; solid state, 60° C., 1 week (after 3 weeks at 2-8° C.)): totally decomposed
- Stability after 3 weeks at 80° C. (in words) ([2]; solid state, 80° C., 3 weeks): totally decomposed
- Appearance ([3]; 2-8° C., 3 wk): White, free flowing powder with clumping
- Appearance ([3]; 60° C., 1 wk (after 3 weeks at 2-8° C.)): Light brown, melted material stuck to
- Appearance after 3 weeks at 80° C. ([3]; 80° C., 3 weeks): completely burned
- Appearance ([3]; 80° C., 3 wk): Dark brown, melted material stuck to
- Flow Property per USP<1174> Powder Flow ([4]; classification by angle of repose): Passable - may hang up
- Angle of Repose [4]: 42.4 degrees
- Angle of Repose, Rounded Whole Number ([4]; rounded whole number): 42 degrees
- Compressibility Index ([5]; Table C3 heads this index in %): 28
- Hausner Ratio [5]: 1.39
